Here are results for 9 molecules from patent US20210345609A1, “AMINOCARBOXYLIC ACID CHELATING AGENT WITH ANTIFUNGAL ACTIVITY AND SYNERGISTIC USE THEREOF WITH OTHER STERILANTS” (priority 2020, published 2021).

For test [1], the system named is Botrytis cinerea. As to the kind of experiment: Spore germination method on Botrytis cinerea. Type of test: cell-based.
The next test relates to Pyricularia oryzae Guy11. Type of test: in vivo, Pyricularia oryzae Guy 11 on barley leaves. The settings on record: Guy11, 6 d.
The next test relates to Fusarium Fg2021. As to the kind of experiment: Indoor in vivo efficacy on Fusarium, wheat coleoptiles. More on the design: species or system Fusarium Fg2021 on wheat (Yumai 35) seedlings. The following applies: Fg2021, 7 d, vs control. As to the method: Seeds of Yumai 35 were sterilized with 0.1% mercury dichloride for 5 min, rinsed with sterile water for 3 times and immersed for 2 h. The seeds were evenly placed in plastic boxes laid with double layers of sterile filter paper with 30 seeds a box. Cultivation was carried out at 25° C. with 90% humidity and a cycle of 12 h light and 12 h dark in a light incubator for 2 d. […] 12 h later, tips of the coleoptiles were cut. Cut wounds were inoculated with 5 μL of 5×10^5 cells/mL Fg2021 spore solution respectively. Cultivation was carried out in the light incubator. 7 d later, length of disease spot was investigated.

The subject of another test is Pyricularia oryzae. As to the kind of experiment: microbe, parasite or virus in culture. Type of test: cell-based.
For another test, the system named is wheat scab (Fg2021). In kind it is in vivo. The following applies: wheat at flowering, vs control group.
A further test deals with pathogenic Phytophthora. As to the kind of experiment: Hyphae growth rate method (PDA plate method). In kind it is cell-based. An excerpt:
Step 1): Setting of concentration gradients of drugs.
Step 2): Determination of EC50 values of drugs against pathogenic Phytophthora with a hyphae growth rate method (PDA plate method)

The subject of a further test is F. verticilloides. As to the kind of experiment: Spore germination method, indoor toxicity on Fusarium. In kind it is cell-based.
A further test has as its system F. graminearum. As to the kind of experiment: microbe, parasite or virus in culture. In kind it is cell-based.
For a further test, the system named is F. solani. As to the kind of experiment: Spore germination method, indoor toxicity on Fusarium. Type of test: cell-based.
A further test relates to F. asiaticum. Described as above. In kind it is cell-based. As to the method: Experimental methods and specific experimental steps for indoor toxicology determination of Fusarium were as follows:
Step (1): Collection of spores. Five plates (5 mm) evenly distributed on the edge of a medium for Fusarium cultured at 25° C. for 3 d were taken and placed in the CMC medium. After culture under shaking at 175 rpm and 25° C. for 5 d, a filtrate was collected with three layers of sterile lens-cleaning paper. Centrifuging was carried out at 10,000 rpm for 10 min. Washing was carried out twice with sterile water (10,000 rpm, 10 min/time). A spore concentration was adjusted to 1×10^4 ml^1.
Step (2): Setting of concentration gradients of drugs. […] Drugs and spore solutions were mixed, drawn to a cell culture plate and incubated in a thermostat incubator at 25° C. for a period of time.
Step (3): Investigation results and statistical analysis. When a spore germination rate of control group was >90%, spore germination was observed and analyzed statistically.
Spore germination rate (%)=number of germinated spores/number of inspected spores×100
Corrected germination rate (%)=(germination rate for control−germination rate for treatment)/([…])×100

A further test relates to Trichoderma. As to the kind of experiment: Hyphae growth rate method (PDA plate method). In kind it is cell-based.
For another test, the system named is Penicillium. As to the kind of experiment: Hyphae growth rate method (PDA plate method). In kind it is cell-based.
Test [2] concerns Botrytis cinerea. As to the kind of experiment: Indoor in vivo efficacy on Botrytis cinerea, cucumber leaves. The settings on record: 4 d, vs control.
The test system of the next test is F. oxysporum. As to the kind of experiment: Spore germination method, indoor toxicity on Fusarium. In kind it is cell-based.
Setting [3] is: 15 μM sprayed on wheat coleoptiles.
Where [4] appears, read: 7.5 mM sprayed on wheat coleoptiles.

≈ marks a conversion by molar mass, not a printed value. Where two headings read alike, the source gives them in different places.

By EC50 is commonly meant the concentration needed to bring the measured effect to its halfway point. For `O=C([O-])CN(CCN(CC(=O)[O-])CC(=O)[O-])CCN(CC(=O)[O-])CC(=O)[O-].[H+].[H+].[Na+].[Na+].[Na+]` [DTPANa3], the EC50 with Botrytis cinerea [1] (spore germination) was determined as 1.88 µg/mL. In addition, the disease spots result in the test with Pyricularia oryzae Guy11 (10 mM sprayed on barley leaves) is “significantly reduced disease spots”.
As for `O=C([O-])CN(CCN(CC(=O)[O-])CC(=O)[O-])CCN(CC(=O)[O-])CC(=O)[O-].[Na+].[Na+].[Na+].[Na+].[Na+]` [DTPANa5], the “length of disease spot” value in the test with Fusarium Fg2021 (setting [3]) is recorded as “significantly shorter disease spots”. Moreover, the EC50 with Pyricularia oryzae came out at 9.32 µg/mL.
On to `O=C([O-])CN(CCN(CC(=O)[O-])CC(=O)[O-])CC(=O)[O-].[Na+].[Na+].[Na+].[Na+]` [EDTANa4], for which the “length of disease spot” value in the test on Fusarium Fg2021 (setting [4]) was “significantly shorter disease spots”. The molecule also returned an EC50 with Pyricularia oryzae of 9.01 µg/mL.
Regarding `COC(=O)Nc1nc2ccccc2[nH]1` [carbendazim, reference compound], the “disease of wheat ears (diseased spikelets)” value (“disease of wheat ears” for short) in the test on wheat scab (Fg2021) (140 g ha^−1, field) is given as “significantly lighter disease”.
Molecule `O=C([O-])CN(CCN(CC(=O)[O-])CC(=O)O)CC(=O)[O-].[Na+].[Na+].[Na+]` [EDTANa3] came in with an EC50 with pathogenic Phytophthora of 17.56 µg/mL.
As for `O=C(O)CN(CCN(CC(=O)O)CC(=O)O)CCN(CC(=O)O)CC(=O)O` [DTPA, diethylenetriaminepentaacetic acid], in the test with wheat scab (Fg2021) (7 g ha^−1, field), the “disease of wheat ears” value is recorded as “significantly lighter disease”. Besides, the EC50 turned out to be 18.82 µg/mL (≈ 47.8 µM) in the test with F. verticilloides (F. verticilloides, spore germination); 16.22 µg/mL (≈ 41.2 µM) in the test with F. graminearum (F. graminearum, spore germination); 9.45 µg/mL (≈ 24 µM) in the test with Pyricularia oryzae; 20.35 µg/mL (≈ 51.7 µM) with pathogenic Phytophthora; 17.80 µg/mL (≈ 45.3 µM) with F. solani (F. solani, spore germination); 8.76 µg/mL (≈ 22.3 µM) with F. asiaticum. In addition, the EC50 in the test with Trichoderma (hyphae growth rate) stood at 7.6421 µg/mL (≈ 19.4 µM); in the test on Botrytis cinerea [1] (spore germination), 1.85 µg/mL (≈ 4.7 µM); in the test on Penicillium (hyphae growth rate) it was 4.3704 µg/mL (≈ 11.1 µM); in the test with F. oxysporum (F. oxysporum, spore germination) it was 17.77 µg/mL (≈ 45.2 µM). Besides, the “length of disease spot” value in the test with Fusarium Fg2021 (setting [3]) is reported as “significantly shorter disease spots”. Moreover, in the test on Botrytis cinerea [2] (10 mM sprayed on cucumber leaves), the disease spots result is listed as “significantly shorter disease spots”.
On to `O=C([O-])CN(CCN(CC(=O)[O-])CC(=O)[O-])CC(=O)[O-].[Mg+2].[Mg+2]` [EDTAMg2], for which the disease spots entry in the test with Botrytis cinerea [2] (30 mM sprayed on cucumber leaves) is “significantly shorter disease spots”.
For the molecule `O=C([O-])CN(CCN(CC(=O)[O-])CC(=O)O)CC(=O)O.[Na+].[Na+]` [EDTANa2], the EC50 was determined as 19.39 µg/mL in the test with pathogenic Phytophthora and 1.12 µg/mL in the test on Botrytis cinerea [1] (spore germination). Besides, the disease spots entry in the test on Pyricularia oryzae Guy11 (30 mM sprayed on barley leaves) is “significantly reduced disease spots”.
For the molecule `O=C(O)CN(CCN(CC(=O)O)CC(=O)O)CC(=O)O` [EDTA, ethylenediaminetetraacetic acid], in the test on wheat scab (Fg2021) (7 g ha^−1, field), the “disease of wheat ears” value was “significantly lighter disease”. Further, the EC50 with F. verticilloides was found to be 19 µg/mL (≈ 65.1 µM); with F. graminearum (Fusarium graminearum) it was 17.8 µg/mL (≈ 60.8 µM); in the test with Pyricularia oryzae it was 9.75 µg/mL (≈ 33.4 µM); in the test on pathogenic Phytophthora (read-out: EC50) it was 18.2 µg/mL (≈ 62.4 µM); in the test with F. solani (Fusarium solani), 17.5 µg/mL (≈ 59.9 µM); in the test on F. asiaticum (read-out: EC50), 8.76 µg/mL (≈ 30 µM). Besides, the half-maximal effective concentration (EC50) in the test with Trichoderma was found to be 6.12 µg/mL (≈ 20.9 µM); in the test on Botrytis cinerea [1], 1.63 µg/mL (≈ 5.58 µM); with Penicillium, 3.15 µg/mL (≈ 10.8 µM); in the test on F. oxysporum (Fusarium oxysporum), 17.7 µg/mL (≈ 60.5 µM). Moreover, in the test on Fusarium Fg2021 (setting [4]), the “length of disease spot” value is “significantly shorter disease spots”. The disease spots result in the test with Botrytis cinerea [2] (25 mM sprayed on cucumber leaves) is “significantly shorter disease spots”.
